Values quoted from earlier work in patent US9433553B2, “Device and method for prevention and treatment of deep venous thrombosis” (Fred Herz Patents LLC, priority 2001, dated 2016).
Where two headings read alike, the source gives them in different places.

Experiments:
thrombin = thrombin (Homo sapiens, UniProt P00734); conditions: synthetic peptides of the thrombin receptor
[1] = system: patients having surgery after hip fracture; conditions: aspirin treated group; placebo 46%
[2] = system: experimental thrombus in the rabbit jugular vein
[3] = system: stasis induced thrombosis; conditions: rabbit; 100% without
[4] = system: patients undergoing knee arthroplasty
[5] = system: patients who underwent elective general surgery
[6] = system: patients undergoing elective total hip replacement
[7] = system: patients with spinal cord injury; conditions: Green (1991)
[8] = system: patients undergoing radical prostatectomy
[9] = system: patients with deep vein thrombosis; conditions: for patients who developed pulmonary embolism: APTT 50-70 seconds, acute deep vein thrombosis
[10] = 4,498 general surgery patients randomized to LMWH or placebo
[11] = 349 patients undergoing total hip replacement, dose adjusted
[12] = 665 patients, fixed doses, elective total hip replacement
[13] = total hip replacement, no placebo group
[14] = subcutaneous, adjusted to APTT 1.5-2 times pretreatment, 66 patients

Q: With “38-45: synthetic peptide corresponding to the thrombin receptor cleavage site (residues 38-45) (LDPRSFLL; UniProt P25116 38-45, looked up, fragment) [Peptide 38-45]” as the molecule, how does the “inhibition of the chromogenic substrate activity of thrombin” value (thrombin) read?
A: competitive inhibitors

Q: With `CC(=O)Oc1ccccc1C(=O)O` [aspirin] as the molecule, how does the “incidence of DVT” value [1] read?
A: 42%

Q: Which results are given for Ac(D)-Phe-Pro-bro-Arg [DuP 714]?
A: fibrin accretion on an experimental thrombus ([2]; rabbit jugular vein): effectively inhibited; systemic anticoagulation ([2]; rabbit jugular vein model): little systemic anticoagulation; incidence of thrombosis [3]: 33%

Q: What does the source list for low molecular weight heparin [LMWH]?
A: reduction of incidence of proximal vein thrombi ([4]; knee arthroplasty or tibial osteotomy): 100%; reduction of incidence of DVT ([4]; knee arthroplasty or tibial osteotomy, every 12 hours): 71%; incidence of DVT ([4]; knee arthroplasty or tibial osteotomy, every 12 hours, placebo 65%): 19%; incidence of proximal vein thrombi ([4]; knee arthroplasty or tibial osteotomy, placebo 19%): none; major bleeding compared to placebo ([5]; 4,498 general surgery patients): No difference; postoperative wound hematomas and transfusion requirements compared to placebo ([5]; 4,498 general surgery patients): increase in postoperative wound hematomas and transfusion requirements; overall mortality [5, 10]: 0.36%; thromboembolic mortality [5, 10]: 0.09%; incidence of DVT ([5]; Ockelford et al (1989), 183 patients, LMWH or placebo): 4.2%; efficacy compared with standard heparin ([5]; seven studies in general surgery patients): same efficacy; incidence of DVT [6, 11]: 12.6%; incidence of DVT [6, 12]: 19.4%; rate of proximal vein thrombi [6, 12]: 5.4%; reduction of incidence of DVT ([6]; elective total hip replacement, 56.6% to 15.5%): 74%; incidence of DVT ([6]; elective total hip replacement, without LMWH 56.6%): 15.5%

Q: For `CC(=O)CC(c1ccccc1)c1c(O)c2ccccc2oc1=O` (stereo not shown) [Warfarin], which “incidence of thigh vein thrombi” value ([4]; knee arthroplasty / total knee replacement, 48 patients) is on record?
A: 6%

Q: What about the “overall incidence of DVT” value ([4]; knee arthroplasty / total knee replacement, 48 patients, no placebo group) of the same molecule?
A: 33%

Q: What about the “patients having calf thrombi” value ([4]; total knee replacement, 48 patients) of the same molecule?
A: 29%

Q: And the “incidence of DVT” value ([6]; Bailey et al (1991), hip replacement patients, low dose warfarin)?
A: 26.6%

Q: And the “incidence of proximal vein thrombosis” value [6, 13]?
A: 3%

Q: What about the “total incidence of DVT” value [6, 13] of the same molecule?
A: 31%

Q: For “38-64: synthetic peptide corresponding to the covalently associated domains (residues 38-64) of the thrombin receptor (LDPRSFLLRNPNDKYEPFWEDEEKNES; UniProt P25116 38-64, looked up, fragment) [Peptide 38-64]”, which “inhibition of the chromogenic substrate activity of thrombin” value (thrombin) is on record?
A: competitive inhibitors

Q: With enoxaparin as the molecule, how does the proximal vein thrombi ([6]; Turpie (1991), fixed dose, elective total hip replacement, placebo 20%) read?
A: 4%

Q: What about the “rate of DVT” value ([6]; Turpie (1991), fixed dose, elective total hip replacement, placebo 42%) of the same molecule?
A: 12%

Q: For heparin, which patients with bleeding ([7]; adjusted (higher) dose) is on record?
A: 24%

Q: And the thromboembolism ([7]; dose adjusted to APTT 1.5 times control, mean 13,200 U every 12 hours)?
A: 7%

Q: What about the patients with bleeding ([7]; fixed dose group) of the same molecule?
A: none

Q: And the thromboembolism ([7]; fixed dose of 5000 U subcutaneously every 12 hours, 29 patients)?
A: 31%

Q: And the “effectiveness of low dose heparin” value (intracerebral hemorrhage)?
A: ineffective

Q: What about the bleeding complications ([8]; mini-dose heparin treated group) of the same molecule?
A: unacceptably high

Q: And the “incidence of pulmonary emboli” value ([8]; mini-dose heparin, 11% without)?
A: none

Q: And the “reduction of postoperative death from pulmonary emboli” value ([5]; low dose heparin)?
A: 65%

Q: And the subclinical thrombi prevented ([5]; low dose heparin, thrombi found by leg scanning after elective general surgery)?
A: approximately 65%

Q: And the “patients with recurrent venous thromboembolism diagnosed objectively” value ([9]; Prandoni et al (1992), similar study, 85 patients)?
A: 14%

Q: And the “patients with improved mean Marder score” value ([9]; adjusted dose intravenous, 49 patients)?
A: 61%

Q: And the “major bleeding associated with initial therapy” value ([9]; adjusted dose intravenous, continuous infusion)?
A: 5%

Q: And the “incidence of new episodes of venous thromboembolism” value ([9]; adjusted dose intravenous, continuous infusion, initial treatment of proximal vein thrombosis)?
A: 6.9%

Q: And the “patients who developed pulmonary embolism” value ([9]; adjusted subcutaneous, 47 patients)?
A: 10.6%

Q: What about the “patients who developed pulmonary embolism” value ([9]; continuous intravenous, 49 patients) of the same molecule?
A: 10.2%

Q: What about the “rate of hemorrhagic complications” value ([9]; subcutaneous and intravenous groups, no difference) of the same molecule?
A: 9.8%

Q: What about the patients with improvement [9, 14] of the same molecule?
A: 48%

Q: And the “patients with increase in thrombus size” value [9, 14]?
A: 18%

Q: What about the “protection against postoperative DVT, adjusted versus fixed low dose” value ([6]; 100 patients, hip replacement or fractured neck of femur, p=0.017) of the same molecule?
A: Significant improvement

Q: And the “incidence of DVT” value [6, 11]?
A: 16%

Q: What about the incidence of DVT [6, 12] of the same molecule?
A: 23.2%

Q: And the “rate of proximal vein thrombi” value [6, 12]?
A: 6.5%

Q: What about the “bleeding, adjusted versus fixed dose” value ([6]; Leyvraz et al (1983)) of the same molecule?
A: No differences

Q: And the “patients who developed DVT” value ([6]; Leyvraz et al (1983), 38 patients, adjusted dose (APTT 31.5-36 seconds))?
A: 13%

Q: And the “patients who developed DVT” value ([6]; Leyvraz et al (1983), 41 patients, fixed dose of 3500 U every eight hours)?
A: 39%

Q: What about the “incidence of DVT left by low dose heparin treatment” value ([6]; total hip and total knee replacement patients) of the same molecule?
A: around 25%
